Measured values: PMC10052025 (Pharmaceutics, 2023)
In brackets after ≈: the same amount, converted by molar mass. Like-named read-outs stand apart in the source and are kept apart here.

Experiments:
[1] = tested on: OATP1B1 c. 521CC genotype; conditions: subjects with OATP1B1 c. 521CC genotype; cited from earlier work
[2] = Nicardipine pharmacokinetic parameters for R-value determination; conditions: Estimated based on Equation (3)
Procedure: The fa is the fraction absorbed. […] Fg is the fraction that escaped gut metabolism (Fg). The ka is the absorption rate constant. […] Qh is the hepatic blood flow rate (1500 mL/min) [32]. RB is the blood-to-plasma concentration ratio. […] RB of 0.63 was used as a worst-case scenario.

[3] = human plasma; cited from earlier work
OATP1B3 [4] = target: T1, OATP1B3 (Homo sapiens, UniProt Q9NPD5)
T1 sequence (Q9NPD5 1-702): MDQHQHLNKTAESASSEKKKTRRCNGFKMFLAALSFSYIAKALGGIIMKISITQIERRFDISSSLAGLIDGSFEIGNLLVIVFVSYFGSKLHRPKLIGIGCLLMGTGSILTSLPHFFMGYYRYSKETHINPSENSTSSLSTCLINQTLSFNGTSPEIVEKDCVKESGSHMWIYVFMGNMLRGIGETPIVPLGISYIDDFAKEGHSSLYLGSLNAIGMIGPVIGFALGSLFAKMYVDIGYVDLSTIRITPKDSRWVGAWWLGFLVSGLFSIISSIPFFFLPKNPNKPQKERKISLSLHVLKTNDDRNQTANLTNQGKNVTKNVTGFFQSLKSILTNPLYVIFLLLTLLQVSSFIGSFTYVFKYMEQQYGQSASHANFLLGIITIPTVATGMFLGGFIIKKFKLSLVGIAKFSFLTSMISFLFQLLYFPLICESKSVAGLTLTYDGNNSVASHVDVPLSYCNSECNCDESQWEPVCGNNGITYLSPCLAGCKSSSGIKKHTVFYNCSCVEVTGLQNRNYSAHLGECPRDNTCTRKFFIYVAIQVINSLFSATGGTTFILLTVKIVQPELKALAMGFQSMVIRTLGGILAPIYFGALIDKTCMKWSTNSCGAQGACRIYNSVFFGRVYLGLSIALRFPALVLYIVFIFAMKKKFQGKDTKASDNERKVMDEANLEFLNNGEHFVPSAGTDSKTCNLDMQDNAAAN
Procedure: (§1) HEK293 stable cell lines expressing FLAG-tagged OATP1B1 (HEK293-FLAG-OATP1B1) or FLAG-tagged OATP1B3 (HEK293-FLAG-OATP1B3) have been published previously. Both HEK293 stable cell lines were cultured in DMEM culture media supplemented with 9% FBS (abbreviated as FBS–DMEM), antibiotic antimycotic, and 600 µg/mL G418 as published previously.
(§2) HEK293-FLAG-OATP1B1 and HEK293-FLAG-OATP1B3 cells (less than 40 passages) were seeded in poly-L-lysine coated 24-well plates at a density of 1.5 × 10^5 cells per well and allowed to grow for 48 h until confluent before the transport studies. [^3H]-E217βG (1 µM, 2 min) and [^3H]-CCK-8 (1 µM, 3 min) were used as substrates for OATP1B1 and OATP1B3 in HEK293-FLAG-OATP1B1 and HEK293-FLAG-OATP1B3 cells, respectively. […] After preincubation, cells were washed three times with HBSS buffer and incubated with HBSS buffer containing substrate, in the […] of vehicle control or inhibitor. […] At the end of substrate incubation, cells were washed three times with ice-cold HBSS buffer and lysed in PBS containing 0.5% Triton X-100. Liquid scintillation counting was determined and normalized to the protein concentration, after correcting for any nonspecific binding in the poly-L-lysine-coated blank plates, as published previously.
(§3) (1) E=Bottom+Top−Bottom/(1+C/IC50) where E is the remaining substrate transport at a given inhibitor concentration (C).

OATP1B1 [5] = target: T2, OATP1B1 (Homo sapiens, UniProt Q9Y6L6); assay: Prediction of OATP1B1-mediated DDI using the static R-value model; parameters: FLAG; expressed in transfected cells; conditions: predicted AUC ratio
T2 sequence (Q9Y6L6 1-691): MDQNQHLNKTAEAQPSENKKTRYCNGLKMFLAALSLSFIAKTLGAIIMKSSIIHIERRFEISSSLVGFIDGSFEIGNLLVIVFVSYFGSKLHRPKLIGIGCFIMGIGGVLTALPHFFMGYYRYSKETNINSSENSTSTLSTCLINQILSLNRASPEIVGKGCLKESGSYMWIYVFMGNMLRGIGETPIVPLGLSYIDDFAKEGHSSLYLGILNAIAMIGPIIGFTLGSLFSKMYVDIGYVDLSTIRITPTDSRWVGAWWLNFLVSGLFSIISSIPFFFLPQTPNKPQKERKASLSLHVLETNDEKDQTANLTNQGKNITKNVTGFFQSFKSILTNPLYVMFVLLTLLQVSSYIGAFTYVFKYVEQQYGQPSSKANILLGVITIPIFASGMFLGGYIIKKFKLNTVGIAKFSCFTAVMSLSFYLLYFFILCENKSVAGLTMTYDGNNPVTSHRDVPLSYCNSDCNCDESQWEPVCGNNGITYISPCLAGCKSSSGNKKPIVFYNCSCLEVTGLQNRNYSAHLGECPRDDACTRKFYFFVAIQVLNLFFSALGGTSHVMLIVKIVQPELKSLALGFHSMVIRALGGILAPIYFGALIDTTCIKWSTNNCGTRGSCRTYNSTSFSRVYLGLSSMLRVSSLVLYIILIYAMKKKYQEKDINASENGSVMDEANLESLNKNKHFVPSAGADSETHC
Procedure: (§4) The R-value, which represents the predicted AUC ratio of the substrate drug in the presence versus absence of an inhibitor drug, was calculated based on Equation (2), following the US-FDA final guidance with the parameters summarized in Table 1.
(§5) The fa is the fraction absorbed. […] Fg is the fraction that escaped gut metabolism (Fg). The ka is the absorption rate constant. […] Qh is the hepatic blood flow rate (1500 mL/min). RB is the blood-to-plasma concentration ratio. […] (3) Iin,max=Imax+faFg×ka×Dose/Qh×RB

[6] = Maximum aqueous soluble concentration; assay type: physicochemical; conditions: aqueous solution (not further specified)
OATP1B1 [7] = target: T2, OATP1B1; parameters: FLAG; expressed in transfected cells; conditions: cited from earlier work
[8] = steady state, read-out: Cmax, plasma, cited from earlier work
OATP1B1 [9] = target: T2, OATP1B1; assay: cell-based; conditions: for OATP1B1-mediated transport after preincubation: washed, substrate without inhibitor; for IC50: [3H]-E217βG 1 µM, 2 min
Procedure: as §1, §2, §3

OATP1B3 [10] = target: T1, OATP1B3; assay: Prediction of OATP1B3-mediated DDI using the static R-value model; parameters: FLAG; expressed in transfected cells; conditions: predicted AUC ratio
Procedure: as §4, §5

OATP1B1/3 = conditions: humans, cited from earlier work
[11] = from co-incubation IC50, FBS-DMEM
[12] = from pre + co-incubation IC50, FBS-DMEM
[13] = from pre + co-incubation IC50, HBSS

With `CC[C@H](C)C(=O)O[C@H]1C[C@H](O)C=C2C=C[C@H](C)[C@H](CC[C@@H](O)C[C@@H](O)CC(=O)O)[C@H]21` [pravastatin] as the compound, how does the “increased AUC, fold of the reference” value [1] read?
The value was 1.9 fold.

For `COC(=O)C1=C(C)NC(C)=C(C(=O)OCCN(C)Cc2ccccc2)C1c1cccc([N+](=O)[O-])c1` (stereo not drawn) [nicardipine], which “Iin, max (estimated total maximum plasma concentration at the inlet to the liver)” value [2] is on record?
The value was 8.46 µM.

What about the “fu (Fraction unbound in the plasma)” value [3] of the same compound?
The value was 0.05 [29].

What about the “effect of preincubation on OATP1B3-mediated transport” value (OATP1B3 [4]; 0.5 µM, any treatment condition) of the same compound?
The value was “did not significantly affect”.

What about the “effect of preincubation on OATP1B3-mediated transport” value (OATP1B3 [4]; FBS-containing medium, 4 µM for 30 min and 2 or 4 µM for 1 h) of the same compound?
The value was “small, yet significant, reductions”.

What about the “R (20 mg)” value (OATP1B1 [5]; [11]) of the same compound?
The value was 1.1.

And the “R (20 mg)” value (OATP1B1 [5]; from co-incubation IC50, HBSS)?
Its value is 1.1.

And the “R (20 mg)” value (OATP1B1 [5]; [12])?
The value was 1.1.

And the “R (20 mg)” value (OATP1B1 [5]; [13])?
Its value is 1.2.

And the “R (30 mg)” value (OATP1B1 [5]; [11])?
Its value is 1.1.

And the “R (30 mg)” value (OATP1B1 [5]; from co-incubation IC50, HBSS)?
The value was 1.1.

And the “R (30 mg)” value (OATP1B1 [5]; [12])?
The value was 1.2.

What about the “R (30 mg)” value (OATP1B1 [5]; [13]) of the same compound?
The value was 1.3.

And the “R (40 mg)” value (OATP1B1 [5]; [11])?
Its value is 1.2.

What about the “R (40 mg)” value (OATP1B1 [5]; from co-incubation IC50, HBSS) of the same compound?
The value was 1.1.

What about the “R (40 mg)” value (OATP1B1 [5]; [12]) of the same compound?
Its value is 1.3.

And the “R (40 mg)” value (OATP1B1 [5]; [13])?
Its value is 1.4.

And the solubility [6]?
Its solubility is 4 µM (≈ 1.92 µg/mL).

And the “inhibition of OATP1B1-mediated transport” value (OATP1B1 [7]; 20 µM)?
Its value is 65%.

What about the Cmax ([8]; 20 mg 3 times a day) of the same compound?
The Cmax was 70 nM.

What about the Cmax ([8]; 30 mg 3 times a day) of the same compound?
Its Cmax is 170 nM.

What about the Cmax ([8]; 40 mg 3 times a day) of the same compound?
Its Cmax is 260 nM.

What about the “effect of preincubation on OATP1B1-mediated transport” value (OATP1B1 [9]; 0.5 µM, 10 min preincubation in HBSS buffer) of the same compound?
The value was “no effect”.

What about the “OATP1B1-mediated transport after preincubation” value (OATP1B1 [9]; 0.5 µM, 30 min preincubation in HBSS buffer) of the same compound?
Its value is 0.78 ± 0.04 fold of the control.

What about the “OATP1B1-mediated transport after preincubation” value (OATP1B1 [9]; 0.5 µM, 1 h preincubation in HBSS buffer) of the same compound?
Its value is 0.82 ± 0.04 fold of the control.

And the “effect of preincubation on OATP1B1-mediated transport” value (OATP1B1 [9]; 0.5 µM, any preincubation duration (10 min–1 h) in FBS-containing medium)?
The value was “no effect”.

And the “effect of preincubation on OATP1B1-mediated transport” value (OATP1B1 [9]; 2 and 4 µM, HBSS buffer and FBS-containing medium, all preincubation time points)?
The value was “significantly reduced”.

And the IC50 (OATP1B1 [9]; IC50, Co-incubation only (no preincubation), FBS-DMEM row)?
Its IC50 is 2800 ± 2440 nM.

And the IC50 (OATP1B1 [9]; IC50, Co-incubation only (no preincubation), HBSS row)?
Its IC50 is 3550 ± 2460 nM.

And the IC50 (OATP1B1 [9]; IC50, Pre + co-incubation, 30 min preincubation in FBS-DMEM (9% FBS))?
Its IC50 is 1570 ± 1400 nM.

And the IC50 (OATP1B1 [9]; IC50, Pre + co-incubation, 30 min preincubation in protein-free HBSS buffer)?
The IC50 was 980 ± 260 nM.

And the “R (20 mg)” value (OATP1B3 [10]; [11])?
Its value is 1.0.

What about the “R (20 mg)” value (OATP1B3 [10]; from co-incubation IC50, HBSS) of the same compound?
The value was 1.0.

And the “R (20 mg)” value (OATP1B3 [10]; [13])?
Its value is 1.1.

What about the “R (30 mg)” value (OATP1B3 [10]; from co-incubation IC50, HBSS) of the same compound?
The value was 1.0.

What about the “R (30 mg)” value (OATP1B3 [10]; [13]) of the same compound?
Its value is 1.2.

And the “R (40 mg)” value (OATP1B3 [10]; from co-incubation IC50, HBSS)?
The value was 1.0.

And the “R (40 mg)” value (OATP1B3 [10]; [13])?
The value was 1.3.

With `COCC(=O)O[C@]1(CCN(C)CCCc2nc3ccccc3[nH]2)CCc2cc(F)ccc2[C@@H]1C(C)C` [Mibefradil, mibefradil] as the compound, how does the “AUC Ratio” value (OATP1B1/3; AUC of atorvastatin on coadministration, ref 10 in text, ref 8 in Table 3) read?
The value was 4.43.

And the “AUC Ratio” value (OATP1B1/3; AUC of pravastatin on coadministration of mibefradil)?
Its value is 1.32.

For `CCOC(=O)C1=C(COCCN)NC(C)=C(C(=O)OC)C1c1ccccc1Cl` (stereo not drawn) [amlodipine], which “predicted DDI potential based on IC50 values against OATP1B1” value (OATP1B1 [7]; IC50 determined without inhibitor-preincubation step) is on record?
Its value is “no DDI potential”.

With `COC(=O)C1=C(C)NC(C)=C(C(=O)OCC(C)C)C1c1ccccc1[N+](=O)[O-]` (stereo not drawn) [Nisoldipine, nisoldipine] as the compound, how does the “AUC Ratio” value (OATP1B1/3; AUC of telmisartan on coadministration) read?
The value was 2.32.
